# Data taken from US4515942A, “Antibiotics KA-6606 XII, XIII, XV, XVI and XVII” (Kowa Company, Ltd., priority 1980, dated 1985).
# Test system: Bacillus subtilis ATCC 6633
# Assay: disc plate method (Table 2)
# Type: cell-based
# Settings: 1 mg/ml; paper disc 8 mm; Bacillus subtilis ATCC 6633 (Table 2)
# Text: (§1) Tables 1 and 2 show the antibacterial spectra of the antibiotics KA-6606 VII to KA-6606 XVII against various bacteria, determined by the disc plate method, in comparison with the KA-6606 II substance. Each of the chemicals is used as impregnated in a paper disc having a diameter of 8 mm.
row,SMILES,Inhibition zone (diameter) [mm]
1,CNC1C(O)CC(N)C(OC2OC(C(C)N)CCC2N)C1O (stereo not drawn) [KA-6606 X],22.5
2,CNC1C(O)CC(N)C(OC2OC(C(C)N)CCC2N)C1O (stereo not drawn) [KA-6606 XI],23.5

# Same assay, conditions: Bacillus subtilis, ATCC6633, 1 mg/ml; paper disc 8 mm; Bacillus subtilis ATCC 6633 (Table 2); read-out: Inhibition zone (diameter)
row,SMILES,zone of inhibition at 1000 µg/mL [mm]
1,CNC1C(OC)CC(N)C(OC2OC(C(C)N)CCC2NC(N)=O)C1O (stereo not drawn) [KA-6606 XVI],20.6

# Test system: Proteus inconstans
# Assay: disc plate method (Table 2)
# Type: cell-based
# Settings: 1 mg/ml; paper disc 8 mm; Proteus inconstans (Table 2)
# Text: as §1
row,SMILES,Inhibition zone (diameter) [mm]
1,CNC1C(O)CC(N)C(OC2OC(C(C)N)CCC2N)C1O (stereo not drawn) [KA-6606 X],11.9
2,CNC1C(O)CC(N)C(OC2OC(C(C)N)CCC2N)C1O (stereo not drawn) [KA-6606 XI],19.0

# Same assay, conditions: Providencia alcalifaciens, 1 mg/ml; paper disc 8 mm; Proteus inconstans (Table 2); read-out: Inhibition zone (diameter)
row,SMILES,zone of inhibition at 1000 µg/mL [mm]
1,CNC1C(OC)CC(N)C(OC2OC(C(C)N)CCC2NC(N)=O)C1O (stereo not drawn) [KA-6606 XVI],8.9

# Test system: Klebsiella pneumoniae PCI 602
# Assay: disc plate method (Table 2)
# Type: cell-based
# Settings: 1 mg/ml, paper disc 8 mm
# Text: as §1
row,SMILES,Inhibition zone (diameter) [mm]
1,CNC1C(O)CC(N)C(OC2OC(C(C)N)CCC2N)C1O (stereo not drawn) [KA-6606 X],17.4
2,CNC1C(O)CC(N)C(OC2OC(C(C)N)CCC2N)C1O (stereo not drawn) [KA-6606 XI],18.5

# Same assay, conditions: Klebsiella pneumoniae, PCI602, 1 mg/ml, paper disc 8 mm, read-out: Inhibition zone (diameter)
row,SMILES,zone of inhibition at 1000 µg/mL [mm]
1,CNC1C(OC)CC(N)C(OC2OC(C(C)N)CCC2NC(N)=O)C1O (stereo not drawn) [KA-6606 XVI],8.5

# Test system: Pseudomonas aeruginosa NCTC 10490
# Assay: disc plate method (Table 2)
# Type: cell-based
# Settings: 1 mg/ml, paper disc 8 mm
# Text: as §1
row,SMILES,Inhibition zone (diameter) [mm]
1,CNC1C(O)CC(N)C(OC2OC(C(C)N)CCC2N)C1O (stereo not drawn) [KA-6606 X],13.8
2,CNC1C(O)CC(N)C(OC2OC(C(C)N)CCC2N)C1O (stereo not drawn) [KA-6606 XI],16.6

# Same assay, conditions: Pseudomonas aeruginosa, NCTC10490, 1 mg/ml, paper disc 8 mm, read-out: Inhibition zone (diameter)
row,SMILES,zone of inhibition at 1000 µg/mL [mm]
1,CNC1C(OC)CC(N)C(OC2OC(C(C)N)CCC2NC(N)=O)C1O (stereo not drawn) [KA-6606 XVI],11.8

# Test system: Proteus vulgaris OX-107
# Assay: disc plate method (Table 2)
# Type: cell-based
# Settings: 1 mg/ml, paper disc 8 mm
# Text: as §1
row,SMILES,Inhibition zone (diameter) [mm]
1,CNC1C(O)CC(N)C(OC2OC(C(C)N)CCC2N)C1O (stereo not drawn) [KA-6606 X],16.6
2,CNC1C(O)CC(N)C(OC2OC(C(C)N)CCC2N)C1O (stereo not drawn) [KA-6606 XI],15.1

# Same assay, conditions: Proteus vulgaris, OX107, 1 mg/ml, paper disc 8 mm, read-out: Inhibition zone (diameter)
row,SMILES,zone of inhibition at 1000 µg/mL [mm]
1,CNC1C(OC)CC(N)C(OC2OC(C(C)N)CCC2NC(N)=O)C1O (stereo not drawn) [KA-6606 XVI],15.8

# Test system: Serratia marcescens NHL
# Assay: disc plate method (Table 2)
# Type: cell-based
# Settings: 1 mg/ml, paper disc 8 mm
# Text: as §1
row,SMILES,Inhibition zone (diameter) [mm]
1,CNC1C(O)CC(N)C(OC2OC(C(C)N)CCC2N)C1O (stereo not drawn) [KA-6606 X],16.5
2,CNC1C(O)CC(N)C(OC2OC(C(C)N)CCC2N)C1O (stereo not drawn) [KA-6606 XI],16.8

# Same assay, conditions: Serratia marcescens, 1 mg/ml, paper disc 8 mm, read-out: Inhibition zone (diameter)
row,SMILES,zone of inhibition at 1000 µg/mL [mm]
1,CNC1C(OC)CC(N)C(OC2OC(C(C)N)CCC2NC(N)=O)C1O (stereo not drawn) [KA-6606 XVI],16.3

# Test system: Staphylococcus aureus 209D-JC-1
# Assay: disc plate method (Table 2)
# Type: cell-based
# Settings: 1 mg/ml, paper disc 8 mm
# Text: as §1
row,SMILES,Inhibition zone (diameter) [mm]
1,CNC1C(O)CC(N)C(OC2OC(C(C)N)CCC2N)C1O (stereo not drawn) [KA-6606 X],23.3
2,CNC1C(O)CC(N)C(OC2OC(C(C)N)CCC2N)C1O (stereo not drawn) [KA-6606 XI],25.2

# Same assay, conditions: Staphylococcus aureus, 209DJC1, 1 mg/ml, paper disc 8 mm, read-out: Inhibition zone (diameter)
row,SMILES,zone of inhibition at 1000 µg/mL [mm]
1,CNC1C(OC)CC(N)C(OC2OC(C(C)N)CCC2NC(N)=O)C1O (stereo not drawn) [KA-6606 XVI],16.3

# Test system: Escherichia coli NIHJ JC-2
# Assay: disc plate method (Table 2)
# Type: cell-based
# Settings: 1 mg/ml, paper disc 8 mm
# Text: as §1
row,SMILES,Inhibition zone (diameter) [mm]
1,CNC1C(O)CC(N)C(OC2OC(C(C)N)CCC2N)C1O (stereo not drawn) [KA-6606 X],16.3
2,CNC1C(O)CC(N)C(OC2OC(C(C)N)CCC2N)C1O (stereo not drawn) [KA-6606 XI],18.0

# Same assay, conditions: Escherichia coli, NIHJJC2, 1 mg/ml, paper disc 8 mm, read-out: Inhibition zone (diameter)
row,SMILES,zone of inhibition at 1000 µg/mL [mm]
1,CNC1C(OC)CC(N)C(OC2OC(C(C)N)CCC2NC(N)=O)C1O (stereo not drawn) [KA-6606 XVI],16.2

# Test system: not listed separately
# Assay: Solubility in solvents
# Type: physicochemical
# Settings: chloroform
row,Solubility in solvents: chloroform,SMILES
1,Insoluble,CNC1C(O)CC(N)C(OC2OC(C(C)N)CCC2N)C1O (stereo not drawn) [KA-6606 X]
2,Insoluble,CNC1C(OC)CC(N)C(OC2OC(C(C)N)CCC2NC(N)=O)C1O (stereo not drawn) [KA-6606 XVI]
3,Insoluble,CNC1C(O)CC(N)C(OC2OC(C(C)N)CCC2N)C1O (stereo not drawn) [KA-6606 XI]

# Same assay, conditions: ethyl acetate
row,Solubility in solvents: ethyl acetate,SMILES
1,Insoluble,CNC1C(O)CC(N)C(OC2OC(C(C)N)CCC2N)C1O (stereo not drawn) [KA-6606 X]
2,Insoluble,CNC1C(OC)CC(N)C(OC2OC(C(C)N)CCC2NC(N)=O)C1O (stereo not drawn) [KA-6606 XVI]
3,Insoluble,CNC1C(O)CC(N)C(OC2OC(C(C)N)CCC2N)C1O (stereo not drawn) [KA-6606 XI]

# Same assay, conditions: methanol
row,Solubility in solvents: methanol,SMILES
1,Easily soluble,CNC1C(O)CC(N)C(OC2OC(C(C)N)CCC2N)C1O (stereo not drawn) [KA-6606 X]
2,Easily soluble,CNC1C(OC)CC(N)C(OC2OC(C(C)N)CCC2NC(N)=O)C1O (stereo not drawn) [KA-6606 XVI]
3,Easily soluble,CNC1C(O)CC(N)C(OC2OC(C(C)N)CCC2N)C1O (stereo not drawn) [KA-6606 XI]

# Same assay, conditions: water
row,Solubility in solvents: water,SMILES
1,Easily soluble,CNC1C(O)CC(N)C(OC2OC(C(C)N)CCC2N)C1O (stereo not drawn) [KA-6606 X]
2,Easily soluble,CNC1C(OC)CC(N)C(OC2OC(C(C)N)CCC2NC(N)=O)C1O (stereo not drawn) [KA-6606 XVI]
3,Easily soluble,CNC1C(O)CC(N)C(OC2OC(C(C)N)CCC2N)C1O (stereo not drawn) [KA-6606 XI]

# Test system: not listed separately
# Assay: Stability
# Type: physicochemical
# Settings: pH range in which stable
row,Stability (stable at pH),SMILES
1,2-10 pH,CNC1C(O)CC(N)C(OC2OC(C(C)N)CCC2N)C1O (stereo not drawn) [KA-6606 X]
2,2-10 pH,CNC1C(OC)CC(N)C(OC2OC(C(C)N)CCC2NC(N)=O)C1O (stereo not drawn) [KA-6606 XVI]
3,2-10 pH,CNC1C(O)CC(N)C(OC2OC(C(C)N)CCC2N)C1O (stereo not drawn) [KA-6606 XI]
